The target of one experiment is T1, BRM (Homo sapiens, UniProt P51531).
T1 construct: made in house; host or cells: High Five insect cells
Nature of the experiment: ATPase catalytic activity assay (ADP-Glo), BRM. The experiment is classed as biochemical. Conditions: 30 nM BRM, 400 μM ATP; for IC50: 20 nM salmon sperm DNA, read-out: BRM IP50 (μM)*. As for the experimental part:
(§1) The ATPase catalytic activity of BRM or BRG-1 was measured by the in vitro biochemical assay using ADP-Glo™ (Promega, V9102). The ADP-Glo™ kinase assay is performed in two steps once the reaction is complete. The first step is to deplete any unconsumed ATP in the reaction. The second step is to convert the reaction product ADP to ATP, which will be utilized by the luciferase to generate luminesce and be detected by a luminescence reader, such as Envision.
(§2) The assay reaction mixture (10 μL) contains 30 nM of BRM or BRG-1, 20 nM salmon sperm DNA (from Invitrogen, UltraPure™ Salmon Sperm DNA Solution, cat #15632011), and 400 μM of ATP in the ATPase assay buffer, which comprises of 20 mM Tris, pH 8, 20 mM MgCl2, 50 mM NaCl, 0.1% Tween-20, and 1 mM fresh DTT (Pierce™ DTT (Dithiothreitol), cat #20290). The reaction is initiated by the addition of the 2.5 μL ATPase solution to 2.5 μL ATP/DNA solution on low volume white Proxiplate-384 plus plate (PerkinElmer,cat #6008280) and incubates at room temperature for 1 hour. Then following addition of 5 μL of ADP-Glo™ Reagent provided in the kit, the reaction incubates at room temperature for 40 minutes. Then 10 μL of Kinase Detection Reagent provided in the kit is added to convert ADP to ATP, and the reaction incubates at room temperature for 60 minutes. Finally, luminescence measurement is collected with a plate-reading luminometer, such as Envision.
(§3) The ADP-Glo™ kinase assay is performed in two steps once the reaction is complete. The first step is to deplete any unconsumed ATP in the reaction. The second step is to convert the reaction product ADP to ATP, which will be utilized by the luciferase to generate luminesce and be detected by a luminescence reader, such as Envision.
as §2, with “BRG1,” for “BRG-1,”

The target of a further experiment is T2, BRG-1 (Homo sapiens, UniProt P51532).
T2 construct: made in house; host or cells: High Five insect cells
In words: ATPase catalytic activity assay (ADP-Glo), BRG-1. The format is biochemical. Conditions: 30 nM BRG-1, 400 μM ATP; for IC50: 20 nM salmon sperm DNA, read-out: BRG1 IP50 (μM)*; for Emax: read-out: BRG1 Max % Inhibition. As for the experimental part:
as §1, §2, §3
as §2, with “BRG1,” for “BRG-1,”

T1 sequence (P51531 whole entry): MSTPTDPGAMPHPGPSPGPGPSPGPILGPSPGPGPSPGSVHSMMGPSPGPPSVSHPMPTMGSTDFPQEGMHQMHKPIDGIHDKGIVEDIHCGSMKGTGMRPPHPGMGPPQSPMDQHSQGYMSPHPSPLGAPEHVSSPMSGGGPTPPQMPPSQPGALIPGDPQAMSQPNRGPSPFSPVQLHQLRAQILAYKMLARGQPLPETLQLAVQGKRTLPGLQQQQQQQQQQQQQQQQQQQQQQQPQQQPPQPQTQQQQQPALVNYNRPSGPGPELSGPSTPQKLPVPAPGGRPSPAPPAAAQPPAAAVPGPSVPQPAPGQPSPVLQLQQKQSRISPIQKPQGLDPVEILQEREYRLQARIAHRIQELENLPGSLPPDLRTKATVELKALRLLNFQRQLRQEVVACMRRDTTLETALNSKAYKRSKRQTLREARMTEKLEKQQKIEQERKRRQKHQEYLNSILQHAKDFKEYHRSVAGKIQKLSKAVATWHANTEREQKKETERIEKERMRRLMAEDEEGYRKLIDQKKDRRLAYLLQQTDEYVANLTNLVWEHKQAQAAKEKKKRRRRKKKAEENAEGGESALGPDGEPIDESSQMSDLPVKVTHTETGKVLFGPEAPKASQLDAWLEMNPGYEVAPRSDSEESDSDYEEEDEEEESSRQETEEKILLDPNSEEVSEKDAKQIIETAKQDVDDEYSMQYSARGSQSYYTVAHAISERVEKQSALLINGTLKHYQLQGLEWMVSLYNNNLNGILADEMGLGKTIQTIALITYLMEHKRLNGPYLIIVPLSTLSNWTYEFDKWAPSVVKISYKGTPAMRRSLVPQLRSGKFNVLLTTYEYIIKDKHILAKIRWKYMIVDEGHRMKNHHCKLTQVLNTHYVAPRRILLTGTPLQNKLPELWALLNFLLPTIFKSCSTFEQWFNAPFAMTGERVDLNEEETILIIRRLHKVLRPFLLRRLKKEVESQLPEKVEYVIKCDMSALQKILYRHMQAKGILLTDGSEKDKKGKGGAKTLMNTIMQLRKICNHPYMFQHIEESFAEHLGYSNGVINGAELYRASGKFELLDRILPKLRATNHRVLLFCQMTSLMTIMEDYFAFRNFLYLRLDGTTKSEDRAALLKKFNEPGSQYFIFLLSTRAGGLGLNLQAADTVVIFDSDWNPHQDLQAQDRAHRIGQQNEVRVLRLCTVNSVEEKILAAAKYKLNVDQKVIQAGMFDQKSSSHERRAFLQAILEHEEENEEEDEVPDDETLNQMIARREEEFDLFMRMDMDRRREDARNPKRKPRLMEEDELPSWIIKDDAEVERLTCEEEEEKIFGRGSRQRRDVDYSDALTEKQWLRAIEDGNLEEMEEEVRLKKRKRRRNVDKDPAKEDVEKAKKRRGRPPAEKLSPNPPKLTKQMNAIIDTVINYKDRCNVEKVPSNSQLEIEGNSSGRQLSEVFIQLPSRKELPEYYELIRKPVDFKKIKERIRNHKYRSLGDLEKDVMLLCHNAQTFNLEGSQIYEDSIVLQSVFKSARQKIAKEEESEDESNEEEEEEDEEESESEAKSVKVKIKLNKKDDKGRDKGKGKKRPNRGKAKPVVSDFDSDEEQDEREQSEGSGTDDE
T2 sequence (P51532 whole entry): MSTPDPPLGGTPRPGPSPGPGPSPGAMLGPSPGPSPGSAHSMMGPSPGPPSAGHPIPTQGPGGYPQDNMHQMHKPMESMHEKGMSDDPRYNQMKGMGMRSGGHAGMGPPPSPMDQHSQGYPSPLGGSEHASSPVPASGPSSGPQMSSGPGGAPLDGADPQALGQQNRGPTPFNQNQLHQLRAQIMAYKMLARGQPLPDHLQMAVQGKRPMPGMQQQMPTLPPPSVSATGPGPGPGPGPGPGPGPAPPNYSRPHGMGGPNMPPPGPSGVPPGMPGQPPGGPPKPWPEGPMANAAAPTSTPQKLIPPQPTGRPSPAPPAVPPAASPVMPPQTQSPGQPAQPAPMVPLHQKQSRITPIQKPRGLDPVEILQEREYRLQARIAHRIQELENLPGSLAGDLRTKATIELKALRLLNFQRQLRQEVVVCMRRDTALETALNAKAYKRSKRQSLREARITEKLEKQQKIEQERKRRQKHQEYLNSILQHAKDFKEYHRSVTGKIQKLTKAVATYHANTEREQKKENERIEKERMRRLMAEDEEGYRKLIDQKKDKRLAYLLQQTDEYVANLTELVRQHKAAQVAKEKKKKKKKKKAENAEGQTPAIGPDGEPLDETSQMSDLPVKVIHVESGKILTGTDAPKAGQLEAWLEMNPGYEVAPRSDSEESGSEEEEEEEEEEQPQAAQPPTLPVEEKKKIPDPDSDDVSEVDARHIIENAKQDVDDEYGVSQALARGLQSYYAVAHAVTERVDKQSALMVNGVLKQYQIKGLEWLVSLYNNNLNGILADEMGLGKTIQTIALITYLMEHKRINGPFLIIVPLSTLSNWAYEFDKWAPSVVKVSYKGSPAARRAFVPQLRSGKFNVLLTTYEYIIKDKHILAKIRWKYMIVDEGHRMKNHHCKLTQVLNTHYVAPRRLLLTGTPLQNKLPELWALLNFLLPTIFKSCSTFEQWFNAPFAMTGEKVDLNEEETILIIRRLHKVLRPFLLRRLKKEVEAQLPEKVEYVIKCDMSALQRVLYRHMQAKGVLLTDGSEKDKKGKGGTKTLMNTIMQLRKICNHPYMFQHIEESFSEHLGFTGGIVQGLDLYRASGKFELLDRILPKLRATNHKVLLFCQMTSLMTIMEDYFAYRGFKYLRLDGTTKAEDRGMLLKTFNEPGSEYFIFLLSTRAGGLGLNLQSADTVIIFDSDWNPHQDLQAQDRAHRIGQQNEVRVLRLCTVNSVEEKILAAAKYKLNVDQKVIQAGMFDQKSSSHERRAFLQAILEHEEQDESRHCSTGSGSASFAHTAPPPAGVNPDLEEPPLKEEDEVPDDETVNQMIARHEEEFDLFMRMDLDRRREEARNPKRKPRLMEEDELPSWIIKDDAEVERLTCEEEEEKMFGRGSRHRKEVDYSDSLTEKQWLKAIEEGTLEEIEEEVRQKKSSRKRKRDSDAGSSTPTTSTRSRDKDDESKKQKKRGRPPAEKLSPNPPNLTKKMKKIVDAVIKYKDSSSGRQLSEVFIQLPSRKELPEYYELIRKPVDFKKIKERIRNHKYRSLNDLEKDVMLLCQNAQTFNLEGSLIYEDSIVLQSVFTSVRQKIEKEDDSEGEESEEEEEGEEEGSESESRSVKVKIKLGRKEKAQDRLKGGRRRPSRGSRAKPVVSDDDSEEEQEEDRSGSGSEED

On to `Cc1cc(-c2cccc(-c3csc(NC(=O)CNC(=O)c4cc(C5CC5)n(S(C)(=O)=O)c4)n3)c2)cc(C)n1` [Compound 19, 5-cyclopropyl-N-(2-((4-(3-(2,6-dimethylpyridin-4-yl)phenyl)thiazol-2-yl)amino)-2-oxoethyl)-1-(methylsulfonyl)-1H-pyrrole-3-carboxamide], for which, on BRM, the “BRM Max % Inhibition” value was >95% and the IC50 lay within 0.1 to 1 µM. Moreover, on BRG-1, the IC50 is 0.1 to 1 µM and the Emax is > 80%.

On to `Cc1cc(-c2cccc(-c3csc(NC(=O)CNC(=O)c4cn(S(=O)(=O)C(C)C)c5c4CCCC5)n3)c2)cc(C)n1` [Compound 20, N-(2-((4-(3-(2,6-dimethylpyridin-4-yl)phenyl)thiazol-2-yl)amino)-2-oxoethyl)-1-(isopropylsulfonyl)-4,5,6,7-tetrahydro-1H-indole-3-carboxamide], for which, at BRM, the “BRM Max % Inhibition” value was >95% and the IC50 was 0.1 to 1 µM. On BRG-1, the IC50 was > 5 µM and the Emax is < 30%.

With `CC(C)S(=O)(=O)n1cc(C(=O)NCC(=O)Nc2nc(-c3cc(F)cc(N4C[C@@H](C)O[C@@H](C)C4)c3)cs2)c2ccccc21` [Compound 21, N-(2-((4-(3-((cis)-2,6-dimethylmorpholino)-5-fluorophenyl)thiazol-2-yl)amino)-2-oxoethyl)-1-(isopropylsulfonyl)-1H-indole-3-carboxamide], on BRM, the “BRM Max % Inhibition” value is on record as >90% and the IC50 lay in the range of 0.1 to 1 µM. At BRG-1, the IC50 was > 5 µM and the Emax is < 30%.

Consider `Cc1nccc(-c2cccc(-c3csc(NC(=O)CNC(=O)c4cn(S(C)(=O)=O)c5ccccc45)n3)n2)n1` [Compound 22, N-(2-((4-(6-(2-methylpyrimidin-4-yl)pyridin-2-yl)thiazol-2-yl)amino)-2-oxoethyl)-1-(methylsulfonyl)-1H-indole-3-carboxamide], for which, on BRM, the “BRM Max % Inhibition” value is given as >80% and the IC50 lay in the range of 0.1 to 1 µM. Also, at BRG-1, the IC50 fell in the range of 1 to 5 µM and the Emax is > 40%.

As for `Cc1cc(-c2cccc(-c3csc(NC(=O)CNC(=O)c4cn(S(C)(=O)=O)c5ccccc45)n3)n2)ncn1` [Compound 23, N-(2-((4-(6-(6-methylpyrimidin-4-yl)pyridin-2-yl)thiazol-2-yl)amino)-2-oxoethyl)-1-(methylsulfonyl)-1H-indole-3-carboxamide], on BRM, the “BRM Max % Inhibition” value is recorded as >90% and the IC50 lay within 0.1 to 1 µM. At BRG-1, the IC50 fell in the range of 1 to 5 µM and the Emax is > 40%.

Turning to `Cc1nccc(-c2cccc(-c3csc(NC(=O)CNC(=O)c4cc(Cl)n(S(=O)(=O)C(C)C)c4)n3)n2)n1` [Compound 24, 5-chloro-1-(isopropylsulfonyl)-N-(2-((4-(6-(2-methylpyrimidin-4-yl)pyridin-2-yl)thiazol-2-yl)amino)-2-oxoethyl)-1H-pyrrole-3-carboxamide], at BRM, the “BRM Max % Inhibition” value is on record as >60% and the IC50 lay in the range of 0.1 to 1 µM. At BRG-1, the IC50 was > 5 µM and the Emax was < 30%.

As for `Cc1cc(-c2cccc(-c3csc(NC(=O)CNC(=O)c4cc(CO)n(S(=O)(=O)C(C)C)c4)n3)c2)cc(C)n1` [Compound 25, N-(2-((4-(3-(2,6-dimethylpyridin-4-yl)phenyl)thiazol-2-yl)amino)-2-oxoethyl)-5-(hydroxymethyl)-1-(isopropylsulfonyl)-1H-pyrrole-3-carboxamide], at BRM, the “BRM Max % Inhibition” value is listed as >95% and the IC50 is < 0.1 µM. Moreover, at BRG-1, the IC50 is 0.1 to 1 µM and the Emax was > 80%.

As to `C[C@@H]1CN(c2cccc(-c3csc(NC(=O)CNC(=O)c4cn(S(C)(=O)=O)c5ccccc45)n3)c2)C[C@H](C)O1` [Compound 26, N-(2-((4-(3-((cis)-2,6-dimethylmorpholino)phenyl)thiazol-2-yl)amino)-2-oxoethyl)-1-(methylsulfonyl)-1H-indole-3-carboxamide], at BRM, the “BRM Max % Inhibition” value is on record as >90% and the IC50 was 0.1 to 1 µM. Further, on BRG-1, the IC50 is 1 to 5 µM and the Emax was > 60%.

With `Cc1cc(-c2cccc(-c3csc(NC(=O)CNC(=O)c4cc(Cl)n(S(=O)(=O)C(C)C)c4)n3)n2)ncn1` [Compound 27, 5-chloro-1-(isopropylsulfonyl)-N-(2-((4-(6-(6-methylpyrimidin-4-yl)pyridin-2-yl)thiazol-2-yl)amino)-2-oxoethyl)-1H-pyrrole-3-carboxamide], on BRM, the “BRM Max % Inhibition” value is given as >80% and the IC50 was in the range of 0.1 to 1 µM. At BRG-1, the IC50 is 0.1 to 1 µM and the Emax was > 60%.

In the case of `C[C@@H]1CN(c2cccc(-c3csc(NC(=O)CNC(=O)c4cn(S(C)(=O)=O)c5c4CCCC5)n3)c2)C[C@H](C)O1` [Compound 28, N-(2-((4-(3-((cis)-2,6-dimethylmorpholino)phenyl)thiazol-2-yl)amino)-2-oxoethyl)-1-(methylsulfonyl)-4,5,6,7-tetrahydro-1H-indole-3-carboxamide], on BRM, the “BRM Max % Inhibition” value is listed as >90% and the IC50 was 0.1 to 1 µM. Besides, on BRG-1, the IC50 was 1 to 5 µM and the Emax is > 40%.

As for `CC(C)S(=O)(=O)n1cc(C(=O)NCC(=O)Nc2nc(-c3cccc(-c4ccncc4)c3)cs2)c(Cl)c1Cl` [Compound 30, 4,5-dichloro-1-isopropylsulfonyl-N-[2-oxo-2-[[4-[3-(4-pyridyl)phenyl]thiazol-2-yl]amino]ethyl]pyrrole-3-carboxamide], on BRM, the “BRM Max % Inhibition” value is recorded as >50% and the IC50 is < 0.1 µM. Also, at BRG-1, the IC50 is > 5 µM and the Emax is < 30%.

Take `CC(C)S(=O)(=O)n1cc(C(=O)NCC(=O)Nc2nc(-c3cccc(N4C[C@@H](C)O[C@@H](C)C4)c3)cs2)c2ccccc21` [Compound 31, N-(2-((4-(3-((cis)-2,6-dimethylmorpholino)phenyl)thiazol-2-yl)amino)-2-oxoethyl)-1-(isopropylsulfonyl)-1H-indole-3-carboxamide]: on BRM, the “BRM Max % Inhibition” value is listed as >80% and the IC50 is 0.1 to 1 µM. Besides, at BRG-1, the IC50 was > 5 µM and the Emax was < 30%.

Regarding `Cc1cc(-c2cccc(-c3csc(NC(=O)CNC(=O)c4cc(Cl)n(S(=O)(=O)C(C)C)c4)n3)c2)nc(C)n1` [Compound 32, 5-chloro-N-(2-((4-(3-(2,6-dimethylpyrimidin-4-yl)phenyl)thiazol-2-yl)amino)-2-oxoethyl)-1-(isopropylsulfonyl)-1H-pyrrole-3-carboxamide], on BRM, the “BRM Max % Inhibition” value is given as >95% and the IC50 is < 0.1 µM. Also, on BRG-1, the IC50 was in the range of 0.1 to 1 µM and the Emax is > 90%.

In the case of `Cc1cc(-c2cccc(-c3csc(NC(=O)CNC(=O)c4cn(S(C)(=O)=O)c5ccccc45)n3)c2)cc(C)n1` [Compound 33, N-(2-((4-(3-(2,6-dimethylpyridin-4-yl)phenyl)thiazol-2-yl)amino)-2-oxoethyl)-1-(methylsulfonyl)-1H-indole-3-carboxamide], on BRM, the “BRM Max % Inhibition” value is recorded as >95% and the IC50 is < 0.1 µM. At BRG-1, the IC50 was in the range of 0.1 to 1 µM and the Emax is > 90%.

With `Cc1cc(-c2cccc(-c3csc(NC(=O)CNC(=O)c4cn(S(=O)(=O)C(C)C)c5ccccc45)n3)c2)cc(C)n1` [Compound 34, N-(2-((4-(3-(2,6-dimethylpyridin-4-yl)phenyl)thiazol-2-yl)amino)-2-oxoethyl)-1-(isopropylsulfonyl)-1H-indole-3-carboxamide], at BRM, the “BRM Max % Inhibition” value is recorded as >90% and the IC50 was < 0.1 µM. At BRG-1, the IC50 lay in the range of 1 to 5 µM and the Emax was > 60%.

Values taken from US12509453B2, “BRM/BRG1 inhibitors and uses thereof” (Foghorn Therapeutics Inc., priority 2019, dated 2025).
